Values of other authors, collected in patent US8962267B1, “Method for predicting the response of non-small cell lung cancer patients to targeted pharmacotherapy” (Pamgene B.V., priority 2009, dated 2015).

Test system: NSCLC
Details: second-line treatment of NSCLC patients, clinical trials, versus control

Compound | overall survival [months]
Nc1nc2[nH]cc(CCc3ccc(C(=O)N[C@@H](CCC(=O)O)C(=O)O)cc3)c2c(=O)[nH]1 [pemetrexed] | 8.3
C#Cc1cccc(Nc2ncnc3cc(OCCOC)c(OCCOC)cc23)c1 [erlotinib] | 6.7
CC(=O)O[C@@]12CO[C@@H]1C[C@H](O)[C@@]1(C)C(=O)[C@H](O)C3=C(C)[C@@H](OC(=O)[C@H](O)[C@@H](NC(=O)OC(C)(C)C)c4ccccc4)C[C@@](O)([C@@H](OC(=O)c4ccccc4)[C@H]21)C3(C)C [docetaxal, docetaxel] | 7.5
